Where two headings read alike, the source gives them in different places. Values belong to the molecule of their own block, whether it stands above or below them.
Legend:
[1] = system: larvae of the mustard beetle (Phaedon cochleariae); experiment: Example 1: Phaedon test (PHAECO spray treatment); settings: 168 h, read-out: efficacy (effect in %, beetle larvae killed)
[2] = system: cotton aphid (Aphis gossypii); experiment: Example 14: Aphis gossypii test (spray to runoff, with ammonium salts and penetrants); assay type: in vivo; settings: for Kill (%) after 6 d +AS + RME 1000 ppm each: + AS and RME 1000 ppm each; for Kill (%) after 6 d +AS 1000 ppm: + ammonium sulphate 1000 ppm; for Kill (%) after 6 d +RME 1000 pm: + rapeseed oil methyl ester; for Kill (%) after 6 d: active compound alone
Source text: (§1) Solvent: 7 parts by weight of dimethylformamide
(§2) Emulsifier: 2 parts by weight of alkylaryl polyglycol ether
(§3) For application with ammonium salts or phosphonium salts and penetration promoters (rapeseed oil methyl ester 500 EW) these are in each case added in a concentration of 1000 ppm to the spray liquor.
Cotton plants (Gossypium hirsutum) which are heavily infested by the cotton aphid (Aphis gossypii) are sprayed to runoff point with the preparation of active compound at the desired concentration.
(§4) After the desired period of time, the kill in % is determined.

[3] = system: green peach aphid (Myzus persicae); experiment: Example 13: activity boost through ammonium/phosphonium salts in combination with penetrants, Myzus persicae test; assay type: in vivo; settings: for Kill (%) after 6 d +RME 1000 pm: +RME 1000 pm (rapeseed oil methyl ester 500 EW); for Kill (%) after 6 d: no additive, bell pepper plants sprayed to runoff
Source text: Activity Boost Through Ammonium/Phosphonium Salts in Combination with Penetrants
as §1, §2, §3
Bell pepper plants (Capsicum annuum) heavily infested by the green peach aphid (Myzus persicae) are sprayed to runoff point with the preparation of active compound at the desired concentration.
as §4

[4] = system: green peach aphid (Myzus persicae); experiment: Example 3: Myzus test (MYZUPE spray treatment); assay type: in vivo; settings: 144 h, read-out: efficacy (effect in %, aphids killed)
[5] = Example A: penetration of active compounds through enzymatically isolated cuticles of apple leaves; assay type: in vitro ADME, apple trees of the Golden Delicious variety; settings: 500 ppm in DMF/emulsifier W 7:1 (w/w), 20° C., 60% rh
Source text: Boosting of the penetration into the plant by ammonium salts or phosphonium salts, and synergistic boosting of penetration into the plants by ammonium/phosphonium salts in combination with penetration promoters
This test measured the penetration of active compounds through enzymatically isolated cuticles of apple leaves.
The leaves used were cut in the fully developed state from apple trees of the Golden Delicious variety. The cuticles were isolated as follows: • first of all, leaf discs labelled on the underside with dye and formed by punching were filled by means of vacuum infiltration with a pectinase solution (0.2% to 2% strength) buffered to a pH of between 3 and 4, • sodium azide was then added and • the leaf discs thus treated were left to stand until the original leaf structure broke down and the non-cellular cuticle underwent detachment.
After that, only those cuticles from the top leaf sides that were free from stomata and hairs were used. They were washed a number of times in alternation with water and a buffer solution of pH 7. The clean cuticles obtained were, finally, applied to Teflon plaques, smoothed with a gentle jet of air, and dried.
In the next step the cuticular membranes obtained in this way were placed in stainless steel diffusion cells (=transport chambers) for the purpose of membrane transport investigations. […]
The diffusion cells were filled with a 30% strength ethylene glycol/water solution. Penetration was determined by applying 10 μl of the spray liquor of the composition below to the outer side of each of the cuticles. […]
After the spray liquors had been applied, the water was evaporated and the chambers were inverted and placed into theromstated troughs, in which the temperature and humidity over the cuticles was adjustable by means of a gentle stream of air onto the cuticles, with the spray coating (20° C., 60% rh). At regular intervals, samples were taken using an autosampler, and the amount of active compound was determined using HPLC. […]

[6] = Determination of the log P values by HPLC on a reversed-phase column (C18), acidic range; assay type: physicochemical; settings: HPLC reversed-phase C18, 43° C., acidic range (pH 2.3)
Method: Determination of the Log P Values
The log P values given in the table were determined in accordance with EEC Directive 79/831 Annex V.A8 by HPLC (High Performance Liquid Chromatography) on a reversed-phase column (C18). Temperature: 43° C.
Mobile phases for the determination in the acidic range (pH 2.3): 0.1% aqueous phosphoric acid, acetonitrile; linear gradient from 10% acetonitrile to 90% acetonitrile
The calibration was carried out using unbranched alkan-2-ones (having 3 to 16 carbon atoms) with known log P values (determination of the log P values by the retention times using linear interpolation between two successive alkanones).
The lambda max values were determined in the maxima of the chromatographic signals using the UV spectra from 200 nm to 400 nm.

[7] = system: caterpillars of the army worm (Spodoptera frugiperda); experiment: Example 2: Spodoptera frugiperda test (SPODFR spray treatment); assay type: in vivo; settings: application rate 100 g/ha, after 7 d
[8] = application rate 500 g/ha, after 6 d
[9] = reversed-phase HPLC column (C18)

SMILES: Cc1ccc(-c2ccc(F)cc2)cc1C1=C(O)C2(CCOCC2)NC1=O [Example I-1-a-1]
- pest or weed control at 500 g/ha [1]: ≥ 80%
- Kill (%) after 6 d +AS + RME 1000 ppm each ([2]; 4 ppm): 60%
- Kill (%) after 6 d +AS 1000 ppm ([2]; 4 ppm): 0%
- Kill (%) after 6 d +RME 1000 pm ([2]; 4 ppm): 0%
- Kill (%) after 6 d ([2]; 4 ppm): 0%
- Kill (%) after 6 d +AS + RME 1000 ppm each ([2]; 20 ppm): 80%
- Kill (%) after 6 d +AS 1000 ppm ([2]; 20 ppm): 5%
- Kill (%) after 6 d +RME 1000 pm ([2]; 20 ppm): 15%
- Kill (%) after 6 d ([2]; 20 ppm): 0%
- Kill (%) after 6 d +AS 1000 ppm ([3]; 0.8 ppm active compound): 0%
- Kill (%) after 6 d +AS + RME 1000 ppm each ([3]; 0.8 ppm active compound): 15%
- Kill (%) after 6 d +RME 1000 pm ([3]; 0.8 ppm active compound): 0%
- Kill (%) after 6 d ([3]; 0.8 ppm active compound): 0%
- Kill (%) after 6 d +AS 1000 ppm ([3]; 4 ppm active compound): 15%
- Kill (%) after 6 d +AS + RME 1000 ppm each ([3]; 4 ppm active compound): 99%
- Kill (%) after 6 d +RME 1000 pm ([3]; 4 ppm active compound): 70%
- Kill (%) after 6 d ([3]; 4 ppm active compound): 0%
- pest or weed control at 500 g/ha [4, 8]: ≥ 80%

SMILES: COc1ccc(-c2ccc(C)c(C3=C(O)C4(CCOCC4)NC3=O)c2)cc1F [Example I-1-a-2]
- pest or weed control at 500 g/ha [1]: ≥ 80%
- pest or weed control at 500 g/ha [4, 8]: ≥ 80%

SMILES: Cc1ccc(-c2ccc(F)cc2)c(C)c1C1=C(O)C2(CCOCC2)NC1=O [Example I-1-a-4]
- Kill (%) after 6 d +AS 1000 ppm ([3]; 0.8 ppm active compound): 0%
- Kill (%) after 6 d +AS + RME 1000 ppm each ([3]; 0.8 ppm active compound): 5%
- Kill (%) after 6 d +RME 1000 pm ([3]; 0.8 ppm active compound): 0%
- Kill (%) after 6 d ([3]; 0.8 ppm active compound): 0%
- Kill (%) after 6 d +AS 1000 ppm ([3]; 4 ppm active compound): 20%
- Kill (%) after 6 d +AS + RME 1000 ppm each ([3]; 4 ppm active compound): 98%
- Kill (%) after 6 d +RME 1000 pm ([3]; 4 ppm active compound): 5%
- Kill (%) after 6 d ([3]; 4 ppm active compound): 15%
- Penetration after 24 h/% EC ([5]; EC alone, average of 8 to 10 measurements): 3%
- Penetration after 24 h/% EC + RME (1 g/l) + AS (1 g/l) ([5]; with rapeseed oil methyl ester 1 g/l and ammonium sulphate 1 g/l): 30%
- Penetration after 24 h/% EC + RME (1 g/l) ([5]; with rapeseed oil methyl ester 1 g/l): 8%

SMILES: O=C1NC2(CCOCC2)C(O)=C1c1cc(-c2ccc(F)c(C(F)(F)F)c2)ccc1Cl [Example I-1-a-24]
- pest or weed control at 500 g/ha [1]: ≥ 80%
- pest or weed control at 500 g/ha [4, 8]: ≥ 80%

SMILES: CCC(=O)OC1=C(c2c(C)ccc(-c3ccc(F)cc3)c2C)C(=O)NC12CCOCC2 [Example I-1-b-1]
- pest or weed control at 500 g/ha [4, 8]: ≥ 80%

SMILES: CCOC(=O)OC1=C(c2c(C)ccc(-c3ccc(F)cc3)c2C)C(=O)NC12CCOCC2 [Example I-1-c-1]
- pest or weed control at 500 g/ha [4, 8]: ≥ 80%

SMILES: COC1=C(c2c(C)ccc(-c3ccc(F)cc3)c2C)C(=O)NC12CCOCC2 [Example I-1-f-1]
- pest or weed control at 500 g/ha [1]: ≥ 80%
- pest or weed control at 500 g/ha [4, 8]: ≥ 80%

- chromatographic logP [6, 9]: 3.12
SMILES: Cc1ccc(-c2ccc(F)cc2)cc1C1=C(O)C2(CCCC2)OC1=O [Example I-2-a-1]
- pest or weed control at 500 g/ha [1]: ≥ 80%
- pest or weed control at 500 g/ha [4, 8]: ≥ 80%

SMILES: O=C1OC2(CCCC2)C(O)=C1c1cc(-c2ccc(F)c(F)c2)ccc1Cl [Example I-2-a-2]
- logP [6]: 3.19

SMILES: Cc1ccc(-c2ccc(F)c(F)c2)cc1C1=C(O)C2(CCCC2)OC1=O [Example I-2-a-3]
- logP [6]: 3.25

SMILES: Cc1ccc(-c2ccc(F)c(Cl)c2)cc1C1=C(O)C2(CCCC2)OC1=O [Example I-2-a-4]
- logP [6]: 3.50

SMILES: O=C1OC2(CCCC2)C(O)=C1c1cc(-c2ccc(F)cc2F)ccc1Cl [Example I-2-a-5]
- logP [6]: 3.16

SMILES: O=C1OC2(CCCC2)C(O)=C1c1cc(-c2cc(F)c(F)c(F)c2)ccc1Cl [Example I-2-a-6]
- logP [6]: 3.35
- efficacy (effect in %, caterpillars killed) [7]: ≥ 80%

SMILES: O=C1OC2(CCCC2)C(O)=C1c1cc(-c2ccc(F)cc2)ccc1Cl [Example I-2-a-7]
- logP [6]: 3.09

SMILES: O=C1OC2(CCCCC2)C(O)=C1c1cc(-c2ccc(F)c(F)c2)ccc1Cl [Example I-2-a-8]
- logP [6]: 3.48

SMILES: O=C1OC2(CCCCC2)C(O)=C1c1cc(-c2cc(F)c(F)c(F)c2)ccc1Cl [Example I-2-a-9]
- logP [6]: 3.65

SMILES: O=C1OC2(CCCCC2)C(O)=C1c1cc(-c2ccc(F)cc2)ccc1Cl [Example I-2-a-10]
- logP [6]: 3.37

SMILES: Cc1ccc(-c2ccc(F)cc2)c(C)c1C1=C(O)C2(CCOCC2)OC1=O [Example I-2-a-11]
- logP [6]: 2.76

SMILES: Cc1ccc(-c2ccc(F)cc2)cc1C1=C(O)C2(CCOCC2)OC1=O [Example I-2-a-12]
- logP [6]: 2.62

SMILES: Cc1ccc(-c2ccc(F)c(F)c2)cc1C1=C(O)C2(CCOCC2)OC1=O [Example I-2-a-13]
- logP [6]: 2.69

SMILES: Cc1ccc(-c2cc(F)c(F)c(F)c2)cc1C1=C(O)C2(CCOCC2)OC1=O [Example I-2-a-14]
- logP [6]: 2.87

SMILES: Cc1ccc(-c2ccc(F)cc2)cc1C1=C(O)C2(CCCCC2)OC1=O [Example I-2-a-15]
- pest or weed control at 500 g/ha [1]: ≥ 80%
- chromatographic logP [6]: 3.4
- pest or weed control at 500 g/ha [4]: ≥ 80%

SMILES: Cc1ccc(-c2ccc(F)c(F)c2)c(C)c1C1=C(O)C2(CCOCC2)OC1=O [Example I-2-a-16]
- logP [6]: 2.88

- chromatographic logP [6, 9]: 4.85
SMILES: Cc1ccc(-c2ccc(F)cc2)cc1C1=C(OC(=O)C(C)C)C2(CCCC2)OC1=O [Example I-2-b-1]

SMILES: Cc1ccc(-c2ccc(F)cc2)c(C)c1C1=C(OC(=O)C(C)C)C2(CCOCC2)OC1=O [Example I-2-b-2]
- pest or weed control at 500 g/ha [1]: ≥ 80%

SMILES: Cc1ccc(-c2ccc(F)c(F)c2)c(C)c1C1=C(OC(=O)C(C)C)C2(CCOCC2)OC1=O [Example I-2-b-3]
- pest or weed control at 500 g/ha [4, 8]: ≥ 80%

SMILES: CCOC(=O)OC1=C(c2cc(-c3ccc(F)cc3)ccc2C)C(=O)OC12CCCCC2 [Example I-2-c-1]
- pest or weed control at 500 g/ha [1]: ≥ 80%
- chromatographic logP [6]: 4.84
- pest or weed control at 500 g/ha [4]: ≥ 80%

- chromatographic logP [6, 9]: 5.43
SMILES: CCOC(=O)C1(OC(=O)Cc2cc(-c3ccc(F)cc3)ccc2C)CCCCC1 [III-1]

- chromatographic logP [6, 9]: 4.52
SMILES: CCOC(=O)C1(OC(=O)Cc2cc(Br)ccc2C)CCCC1 [III-1′]
